Assay results: a melting point compilation (Tetko et al.; mined from patent text by program, amines drawn as free bases though some values may be those of a salt)
Residues, ends and D or L forms follow the SMILES beside them. *: point of attachment. Boc = CC(C)(C)OC(=O)*

Question: For O=C(NCc1ccc(Cl)cc1)c1cnc2c(I)cc(CO)cc2c1O, which melting point is on record?
Answer: 283 to 286 °C

Question: Which melting point does the source give for COc1cc2c(cc1-c1cccnc1)-c1c(Cl)c3c(n1CC2)C(=O)N(C(C)(C)C)CCCC3 here?
Answer: 190 to 192 °C

Question: With O=C(Nc1cc(Cl)ccc1S(=O)(=O)c1ccc(Cl)cc1)N[C@@H](Cc1ccc(NC(=O)c2c(Cl)cccc2Cl)cc1)C(=O)O as the compound, how does the melting point read?
Answer: 239 °C

Question: For CS(=O)(=O)OCCc1ccc(OCc2coc(/C=C/c3ccccc3)n2)cc1, which melting point is on record?
Answer: 121 to 122 °C

Question: For Cc1cc(O)c(N2CC(=O)NS2(=O)=O)c(F)c1, which melting point is on record?
Answer: 164 to 166 °C

Question: Which melting point does the source give for Nc1ccc2c(c1)CN1CC(=O)NC1=N2 here?
Answer: > 275 °C

Question: For COC(=O)c1nc(CI)n(-c2ccc(Cl)cc2C(=O)c2ccccc2Cl)n1, which melting point is on record?
Answer: 125 to 128 °C

Question: Which melting point does the source give for C[Si](C)(C)Nc1ccn([Si](C)(C)C)c(=O)n1 here?
Answer: 252 to 256 °C

Question: Which melting point does the source give for CSC(C[C@H](NC(=O)[C@H](CC(C)C)NC(=O)OCc1ccccc1)C(C)=O)c1ccccc1 (some centres not stated) here?
Answer: 119 to 120 °C

Question: Which melting point does the source give for COC(=O)CCSc1nc(C(N)=O)cs1 here?
Answer: 151 to 152 °C

Question: Which melting point does the source give for Cc1ccc(C)n1C1=CC2=C(CC1)CCc1[nH]c(=O)c(=O)[nH]c12 here?
Answer: > 265 °C

Question: Which melting point does the source give for CCOC(=O)c1c(-c2ccccc2)csc1N1C(=O)c2ccccc2C1=O here?
Answer: 163 to 164 °C

Question: Which melting point does the source give for CC(C)(C)c1cc(OCC(=O)OCCN2C(C)(C)CC(OC(=O)COc3ccc(O)c(C(C)(C)C)c3)CC2(C)C)ccc1O here?
Answer: 74 to 77 °C

Question: For Cc1cc(Oc2ccc([N+](=O)[O-])cc2C(F)(F)F)nn1C(=O)NC(C)C, which melting point is on record?
Answer: 90 to 92 °C

Question: For Cc1ccc(-c2ccccc2NC(=N)N(C)C)cc1, which melting point is on record?
Answer: 147 to 148 °C

Question: For CCCc1nc2cccc(C(=O)O)c2n1Cc1ccc(-c2ccccc2-c2nc(=O)o[nH]2)cc1, which melting point is on record?
Answer: 169 to 171 °C

Question: For COc1ccc(OC)c2c1C[C@@H](O)[C@H](NC(C)C)C2 (relative stereo), which melting point is on record?
Answer: 144 to 145 °C

Question: With C=CC(=O)OCCS(=O)(=O)c1ccc(O)cc1 as the compound, how does the melting point read?
Answer: 91 to 92 °C

Question: For CCCCNC(=O)c1ccc(C(F)(F)F)c(-n2nc(CC)n(Cc3ccc(-c4ccccc4S(=O)(=O)NC(=O)OC(C)(C)C)cc3F)c2=O)c1, which melting point is on record?
Answer: 114 to 116 °C

Question: For CC1(C)OC(=O)Nc2ccc(-c3cc(Cl)cc(C#N)c3)cc21, which melting point is on record?
Answer: 256 to 257 °C

Question: Which melting point does the source give for CC1(C)C(=O)C(c2ccccc2)=C1c1ccc(S(N)(=O)=O)cc1 here?
Answer: 142 to 144 °C

Question: With O=C(O)c1ccc(OCC2CC(=O)N(c3ccc(OC4CCCC4O)cc3)C2)cc1 (configuration not stated) as the compound, how does the melting point read?
Answer: 176 to 178 °C

Question: With O[C@@H](c1c[nH]nc1-c1ccccc1)[C@H](CCN1CCC(O)(c2ccccc2)CC1)c1ccc(Cl)c(Cl)c1 (racemic) as the compound, how does the melting point read?
Answer: 133 to 135 °C

Question: With COC(=O)c1ccc(Cc2cc3cc(Cl)ccc3n2S(=O)(=O)c2ccc(C(C)C)cc2)cc1 as the compound, how does the melting point read?
Answer: 99 °C

Question: With COC(=O)CNC(=O)CNC(=O)OC(C)(C)C (Boc-Gly-Gly-OMe) as the compound, how does the melting point read?
Answer: 132 to 135 °C

Question: With CCOc1ccccc1-c1nc2c(C)nn(C)c2c(=O)[nH]1 as the compound, how does the melting point read?
Answer: 201 to 204 °C

Question: With CN1C(=O)COc2cc3c(cc21)C1(CO3)C(=O)N(CC2CCCO2)c2ccccc21 (configuration not stated) as the compound, how does the melting point read?
Answer: 79 to 81 °C

Question: With C[C@H](CNc1nc(Cl)nc2c1ncn2[C@@H]1O[C@H](CO)[C@@H](O)[C@H]1O)Oc1ccccc1 as the compound, how does the melting point read?
Answer: 175 to 177 °C

Question: With On1c(-c2ccccc2)c[nH]c1=S as the compound, how does the melting point read?
Answer: 191 °C

Question: For CN1C(=O)CCC1(O)c1ccc(Cl)c(N)c1 (configuration not stated), which melting point is on record?
Answer: 154 °C

Question: With COc1cc(-c2cc(F)cc(C#N)c2)cc2c1NC(=O)OC2(C)C as the compound, how does the melting point read?
Answer: 252 to 253 °C

Question: With O=C(Cl)N1CC(Sc2ccc(Cl)cc2)C1 as the compound, how does the melting point read?
Answer: 47 to 48 °C

Question: For Cc1c(OCC(O)CN2CCOCC2)noc1-c1ccccc1 (configuration not stated), which melting point is on record?
Answer: 94 to 95 °C

Question: Which melting point does the source give for CCOC(=O)C(C)Oc1ncn(-c2cccc(Br)c2)n1 (configuration not stated) here?
Answer: 83 to 85 °C

Question: Which melting point does the source give for CC(C)NCC(O)COc1ncccc1Cl (configuration not stated) here?
Answer: 71 to 73 °C

Question: For COc1cc2c(cc1O)CCN(Cc1cccnc1)C2, which melting point is on record?
Answer: 165 to 166 °C

Question: For CCOC(=O)C(=O)c1ccc(OCCCOc2ccc(C(C)=O)c(O)c2)cc1, which melting point is on record?
Answer: 63 to 65 °C

Question: Which melting point does the source give for CCCc1cc(C=O)c(O)cc1O here?
Answer: 92.8 to 93.6 °C

Question: Which melting point does the source give for COc1ccc(-c2cccc3c2OC(COS(=O)(=O)c2ccc(C)cc2)C3)c(OC)c1 (configuration not stated) here?
Answer: 120 to 123 °C

Question: For CN(C)C(=O)C(C)(C)c1ccccc1, which melting point is on record?
Answer: 57 to 59 °C

Question: With Cc1cc(-c2cc(CN3CCN(C)CC3)c(=O)n(Cc3ccccc3Cl)n2)ccc1F as the compound, how does the melting point read?
Answer: 150 to 151 °C

Question: For Cn1c(=O)[nH]c(=O)c2c1ncn2Cc1noc(Cc2ccccc2)n1, which melting point is on record?
Answer: 188 to 190 °C

Question: Which melting point does the source give for O=C(NCCO)c1cccc(-c2cccc3cc(Cc4cccc(C(F)(F)F)c4)oc23)c1 here?
Answer: 140 to 141 °C

Question: With COc1ccc(C2OCCN2CCNc2ccc(NCCN3CCOC3c3ccc(OC)cc3OC)c3c2C(=O)c2c(O)ccc(O)c2C3=O)c(OC)c1 (configuration not stated) as the compound, how does the melting point read?
Answer: 181 to 185 °C

Question: For CCOC(=O)C(CC(=O)c1ccc2cc(OC)ccc2c1)C(=O)c1ccccc1 (configuration not stated), which melting point is on record?
Answer: 136 to 137 °C

Question: Which melting point does the source give for CCOc1nn(Cc2ccc(OCc3cn(-c4ccccn4)nc3C)cc2)cc1CCC(=O)O here?
Answer: 126 to 127 °C

Question: Which melting point does the source give for CCCc1cccc2nc3c(=O)[nH][nH]c(=O)c3c(O)c12 here?
Answer: > 400 °C

Question: With O[C@@H]1[C@H](O)[C@H](O)CO[C@H]1n1c(Br)nc2cc(Cl)ccc21 as the compound, how does the melting point read?
Answer: 120 °C

Question: For CC(CCl)N1C(=O)N(c2ccc(Cl)cc2)CC1C (configuration not stated), which melting point is on record?
Answer: 70 to 72 °C

Question: With CON=C(C)c1ccc2nnn(Cc3ccc4ncccc4c3)c2n1 as the compound, how does the melting point read?
Answer: 155 to 157 °C

Question: With CC(C)c1ccnc(NC(=S)NCCC2=CCCCC2)c1 as the compound, how does the melting point read?
Answer: 105 to 106 °C

Question: For CCCc1nc(SC(F)F)c(C(=O)O)n1Cc1ccc(-c2ccccc2S(=O)(=O)NC(=O)NCc2ccc(F)cc2)cc1, which melting point is on record?
Answer: 122 °C

Question: For CCOC(=O)OC1CCC2(C)C3=C(CCC2C1)C1=CCC(C(C)CCCC(C)C)C1(C)CC3 (configuration not stated), which melting point is on record?
Answer: 101 to 106 °C

Question: Which melting point does the source give for COC(=O)C12OCC34C(CC5C(C)=C(O)C(=O)CC5(C)C3C(O)C1O)OC(=O)C(OC(=O)C=C(C)C(C)C)C24 (configuration not stated) here?
Answer: 220 to 223 °C

Question: For CCCCc1ccc(OC)c(-c2csc(NC(=O)c3ccc(C(=O)CCN4CCC(NC(C)=O)C4)cc3)n2)c1 (configuration not stated), which melting point is on record?
Answer: 112 °C

Question: With O=C(NC1CCCc2cc(C(=O)O)ccc21)OCc1ccccc1 (configuration not stated) as the compound, how does the melting point read?
Answer: 203 to 205 °C

Question: For O=C(O)CC[C@H](NC(=O)c1cc2ccccc2[nH]1)C(=O)NC(c1ccc(Cl)cc1)c1ccc(Cl)cc1, which melting point is on record?
Answer: 207 °C

Question: With CCOc1ccc2c(c1)n(C1CCCCC1)c(=O)n2S(=O)(=O)c1ccc(C(=O)OCc2ccccc2)cc1OC as the compound, how does the melting point read?
Answer: 131 °C

Question: With N#Cc1c(N2CCN(C(=O)c3cccs3)CC2)c2sccc2[nH]c1=O as the compound, how does the melting point read?
Answer: 293 °C

Question: With COC(=O)c1ccc(N2CCC(N(C)Cc3ccccc3)CC2)cc1 as the compound, how does the melting point read?
Answer: 103 to 104 °C

Question: For CC(=O)Nc1ccccc1Oc1cc2c(=O)ccoc2cc1NS(C)(=O)=O, which melting point is on record?
Answer: 130 to 132 °C

Question: Which melting point does the source give for CC(C)c1c(Cl)nc(NC=O)nc1Cl here?
Answer: 95 to 96 °C

Question: With CC(C)(C)Nc1nccc(C#C[Si](C)(C)C)n1 as the compound, how does the melting point read?
Answer: 71 to 73 °C

Question: With O=C(C=Cc1cccnc1)NCC=CCN1CCN(C(c2ccccc2)c2ccccc2)CC1 as the compound, how does the melting point read?
Answer: 116 to 119 °C

Question: Which melting point does the source give for O=C(Nc1ccc(CCCc2nnn[nH]2)cc1)C(F)(F)C(F)(F)C(F)(F)C(F)(F)C(F)(F)C(F)(F)C(F)(F)F here?
Answer: 170 to 172 °C

Question: Which melting point does the source give for O=C(NC(=O)N1CCC(Oc2ccc(Cl)cc2)CC1)c1ccc(O)cc1 here?
Answer: 189 °C

Question: For COc1ccc(C2=C(CC(C)N(CCO)C(C)C)C(=O)NCCC2)cc1 (configuration not stated), which melting point is on record?
Answer: 109 to 111 °C
